From PubChem BioAssay AID248 (DTP/NCI, 2004)
Where “and” joins values, the source holds several entries; their conditions need not be identical. Equal entries are not always repeated. Inconclusive results and toxic doses are left out.

Tested on: L1210 leukemia ip in BDF1 mice, survival T/C
Experiment: NCI In Vivo Anticancer Drug Screen. Data for tumor model L1210 Leukemia (intraperitoneal) in B6D2F1 (BDF1) mice
Settings: endpoint: mean survival time, higher = longer survival
How it was run: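 Each compound was tested against a transplantable tumor grown in mice. The endpoint was survival, with treated animals benchmarked against vehicle controls as a simple ratio.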

[1] = dose: 100.0 mg/kg/injection, schedule: Q04DX002 (ip), vehicle: saline
[2] = dose: 200.0 mg/kg/injection, schedule: Q04DX002 (ip), vehicle: saline
[3] = dose: 100.0 mg/kg/injection, schedule: Q01DX001 (ip), vehicle: saline
[4] = dose: 200.0 mg/kg/injection, schedule: Q01DX001 (ip), vehicle: saline
[5] = dose: 400.0 mg/kg/injection, schedule: Q01DX001 (ip), vehicle: saline
[6] = dose: 100.0 mg/kg/injection, schedule: Q01DX009 (ip), vehicle: saline with Tween-80
[7] = dose: 200.0 mg/kg/injection, schedule: Q01DX009 (ip), vehicle: saline with Tween-80
[8] = dose: 100.0 mg/kg/injection, schedule: Q04DX002 (ip), vehicle: saline with Tween-80
[9] = dose: 200.0 mg/kg/injection, schedule: Q04DX002 (ip), vehicle: saline with Tween-80
[10] = dose: 400.0 mg/kg/injection, schedule: Q04DX002 (ip), vehicle: saline with Tween-80

For CC1CCCCC1C(=O)N1CCCC1 (stereo not given), the T/C [1] was 101 % of control and the T/C [2] was 105 % of control.
With C[N+](C)(C)c1ccc(C(=O)[O-])cc1 the T/C (dose: 50.0 mg/kg/injection, schedule: Q01DX001 (ip), vehicle: saline) was 97 % of control, the T/C [3] was 97 % of control and the T/C [4] was 97 % of control. For the same compound, the T/C [5] was 103 % of control.
CCCCOc1ccc(O)cc1 was tested, and the T/C (dose: 100.0 mg/kg/injection, schedule: Q04DX003 (ip), vehicle: other) was 117 % of control, the T/C (dose: 200.0 mg/kg/injection, schedule: Q04DX003 (ip), vehicle: other) was 100 % of control and the T/C (dose: 400.0 mg/kg/injection, schedule: Q04DX003 (ip), vehicle: other) was 108 % of control.
In the case of O=C(NCCCl)Nc1ccccn1, the T/C (dose: 100.0 mg/kg/injection, schedule: Q04DX003 (ip), vehicle: Klucel (hydroxypropylcellulose) (HPC)) is reported as 90 % of control, the T/C (dose: 200.0 mg/kg/injection, schedule: Q04DX003 (ip), vehicle: Klucel (hydroxypropylcellulose) (HPC)) is reported as 94 % of control and the T/C (dose: 400.0 mg/kg/injection, schedule: Q04DX003 (ip), vehicle: Klucel (hydroxypropylcellulose) (HPC)) is reported as 86 % of control.
With C=CCOCCN1CCN(CCCN2c3ccccc3Sc3ccc(C(F)(F)F)cc32)CC1 the T/C (dose: 0.23 mg/kg/injection, schedule: Q01DX009 (ip), vehicle: saline) was 93 % of control, the T/C (dose: 0.35 mg/kg/injection, schedule: Q01DX009 (ip), vehicle: saline) was 86 % of control and the T/C (dose: 0.54 mg/kg/injection, schedule: Q01DX009 (ip), vehicle: saline) was 98 % of control. For the same compound, the T/C (dose: 1.09 mg/kg/injection, schedule: Q01DX009 (ip), vehicle: saline) was 111 % of control, the T/C (dose: 2.18 mg/kg/injection, schedule: Q01DX009 (ip), vehicle: saline) was 86 % of control and the T/C (dose: 6.25 mg/kg/injection, schedule: Q04DX003 (ip), vehicle: saline) was 101 % of control. The T/C (dose: 12.5 mg/kg/injection, schedule: Q04DX003 (ip), vehicle: saline) was 110 % of control, the T/C (dose: 16.0 mg/kg/injection, schedule: Q01DX003 (ip), vehicle: saline) was 117 % of control and the T/C (dose: 17.0 mg/kg/injection, schedule: Q04DX003 (ip), vehicle: saline) was 101 % of control. For the same compound, the T/C (dose: 25.0 mg/kg/injection, schedule: Q01DX003 (ip), vehicle: saline) was 108 % of control and the T/C (dose: 25.0 mg/kg/injection, schedule: Q04DX003 (ip), vehicle: saline) was 106 % of control.
CC(C)=CCCC(C)C/C=N\N=C(N)N (stereo not given) was tested, and the T/C (dose: 15.0 mg/kg/injection, schedule: Q01DX Z (ip), vehicle: carboxymethylcellulose (CMC)) was 95 % of control, the T/C (dose: 30.0 mg/kg/injection, schedule: Q01DX Z (ip), vehicle: carboxymethylcellulose (CMC)) was 98 % of control and the T/C (dose: 30.0 mg/kg/injection, schedule: Q01DX Z (oral), vehicle: carboxymethylcellulose (CMC)) was 118 % of control. The T/C (dose: 60.0 mg/kg/injection, schedule: Q01DX Z (ip), vehicle: carboxymethylcellulose (CMC)) was 97 % of control, the T/C (dose: 60.0 mg/kg/injection, schedule: Q01DX Z (oral), vehicle: carboxymethylcellulose (CMC)) was 101 % of control and the T/C (dose: 120.0 mg/kg/injection, schedule: Q01DX Z (oral), vehicle: carboxymethylcellulose (CMC)) was 97 % of control. The T/C (dose: 240.0 mg/kg/injection, schedule: Q01DX Z (oral), vehicle: carboxymethylcellulose (CMC)) was 101 % of control.
In the case of CC1CN1C(=O)Nc1cccc2c(NC(=O)N3CC3C)cccc12 (stereo not given), the T/C (dose: 1.58 mg/kg/injection, schedule: Q01DX009 (ip), vehicle: Klucel (hydroxypropylcellulose) (HPC)) is reported as 95 % of control, the T/C (dose: 2.38 mg/kg/injection, schedule: Q01DX009 (ip), vehicle: Klucel (hydroxypropylcellulose) (HPC)) is reported as 101 % of control and the T/C (dose: 12.34 mg/kg/injection, schedule: Q01DX009 (ip), vehicle: Klucel (hydroxypropylcellulose) (HPC)) is reported as 122 % of control. The T/C (dose: 12.5 mg/kg/injection, schedule: Q04DX003 (ip), vehicle: Klucel (hydroxypropylcellulose) (HPC)) was 117 % of control, the T/C (dose: 35.0 mg/kg/injection, schedule: Q04DX003 (ip), vehicle: Klucel (hydroxypropylcellulose) (HPC)) was 105 % of control and the T/C (dose: 50.0 mg/kg/injection, schedule: Q01DX001 (ip), vehicle: Klucel (hydroxypropylcellulose) (HPC)) was 118 % of control and 121 % of control. The T/C (dose: 50.0 mg/kg/injection, schedule: Q04DX003 (ip), vehicle: Klucel (hydroxypropylcellulose) (HPC)) was 157 % of control, the T/C (dose: 55.0 mg/kg/injection, schedule: Q04DX003 (ip), vehicle: Klucel (hydroxypropylcellulose) (HPC)) was 207 % of control and the T/C (dose: 75.0 mg/kg/injection, schedule: Q01DX001 (ip), vehicle: Klucel (hydroxypropylcellulose) (HPC)) was 119 % of control. For the same compound, the T/C (dose: 75.0 mg/kg/injection, schedule: Q04DX003 (ip), vehicle: Klucel (hydroxypropylcellulose) (HPC)) was 117 % of control, the T/C (dose: 85.0 mg/kg/injection, schedule: Q01DX009 (ip), vehicle: Klucel (hydroxypropylcellulose) (HPC)) was 89 % of control and the T/C (dose: 85.0 mg/kg/injection, schedule: Q04DX003 (ip), vehicle: Klucel (hydroxypropylcellulose) (HPC)) was 116 % of control. For the same compound, the T/C (dose: 170.0 mg/kg/injection, schedule: Q04DX003 (ip), vehicle: Klucel (hydroxypropylcellulose) (HPC)) was 118 % of control and the T/C (dose: 200.0 mg/kg/injection, schedule: Q01DX001 (ip), vehicle: Klucel (hydroxypropylcellulose) (HPC)) was 88 % of control.
CNC(=O)OCC1=C(OC)C(=O)C(OC)=CC1=O was tested, and the T/C (dose: 12.5 mg/kg/injection, schedule: Q01DX009 (ip), vehicle: other) was 90 % of control, the T/C (dose: 12.5 mg/kg/injection, schedule: Q04DX003 (ip), vehicle: other) was 97 % of control and the T/C (dose: 25.0 mg/kg/injection, schedule: Q01DX009 (ip), vehicle: other) was 92 % of control. For the same compound, the T/C (dose: 25.0 mg/kg/injection, schedule: Q04DX003 (ip), vehicle: other) was 96 % of control, the T/C (dose: 50.0 mg/kg/injection, schedule: Q01DX009 (ip), vehicle: other) was 90 % of control and the T/C (dose: 50.0 mg/kg/injection, schedule: Q04DX003 (ip), vehicle: other) was 100 % of control.
With CN(C)c1ccc(N(C)C)nn1 the T/C [6] was 104 % of control.
In the case of CC(C)(CBr)COC(=O)Nc1cccc2ccccc12, the T/C (dose: 50.0 mg/kg/injection, schedule: Q01DX009 (ip), vehicle: saline with Tween-80) is reported as 91 % of control and the T/C [7] is reported as 87 % of control.
For CCCCNC(=S)Nc1ccccc1, the T/C (dose: 75.0 mg/kg/injection, schedule: Q01DX001 (ip), vehicle: other) was 117 % of control, the T/C (dose: 150.0 mg/kg/injection, schedule: Q01DX001 (ip), vehicle: other) was 117 % of control and the T/C (dose: 300.0 mg/kg/injection, schedule: Q01DX001 (ip), vehicle: other) was 102 % of control.
Cn1c([N+](=O)[O-])cnc1/C=[N+](/C)[O-] was tested, and the T/C [1] was 107 % of control, the T/C [2] was 100 % of control and the T/C (dose: 400.0 mg/kg/injection, schedule: Q04DX002 (ip), vehicle: saline) was 107 % of control.
In the case of CNC(=S)N/N=C1/C(=N\NC(=S)NC)C(=O)OC1C(O)CO (stereo not given), the T/C (dose: 100.0 mg/kg/injection, schedule: Q01DX001 (ip), vehicle: other) is reported as 93 % of control, the T/C [6] is reported as 98 % of control and the T/C (dose: 100.0 mg/kg/injection, schedule: Q04DX003 (ip), vehicle: saline with Tween-80) is reported as 100 % of control. For the same compound, the T/C (dose: 200.0 mg/kg/injection, schedule: Q01DX001 (ip), vehicle: other) was 95 % of control, the T/C [7] was 112 % of control and the T/C (dose: 200.0 mg/kg/injection, schedule: Q04DX003 (ip), vehicle: saline with Tween-80) was 89 % of control. For the same compound, the T/C (dose: 400.0 mg/kg/injection, schedule: Q01DX001 (ip), vehicle: other) was 90 % of control and the T/C (dose: 400.0 mg/kg/injection, schedule: Q04DX003 (ip), vehicle: saline with Tween-80) was 91 % of control.
For C=CCSc1ccccc1C, the T/C [3] was 95 % of control and the T/C [4] was 95 % of control.
For O=[N+]([O-])c1ccccc1-c1ccccc1[N+](=O)[O-], the T/C [8] was 97 % of control, the T/C [9] was 90 % of control and the T/C [10] was 87 % of control.
In the case of CCCCCCCC(=O)N1C(=O)CCC1C(=O)NCCCCC(=O)OC (stereo not given), the T/C [8] is reported as 103 % of control, the T/C [9] is reported as 116 % of control and the T/C [10] is reported as 90 % of control.
OCC[CH2][Pb]([c]1ccccc1)([c]1ccccc1)[c]1ccccc1 was tested, and the T/C (dose: 3.12 mg/kg/injection, schedule: Q04DX003 (ip), vehicle: Klucel (hydroxypropylcellulose) (HPC)) was 94 % of control and the T/C (dose: 6.25 mg/kg/injection, schedule: Q04DX003 (ip), vehicle: Klucel (hydroxypropylcellulose) (HPC)) was 97 % of control.
With CN(C)CCN(CC(=O)O)CC(=O)O the T/C [3] was 100 % of control, the T/C [4] was 102 % of control and the T/C [5] was 100 % of control.
